Data on two molecules can be found in patent publication JP2011219500A, “ムスカリンレセプターアンタゴニストとしての有用なビフェニル化合物” (Theravance Inc, priority 2011, dated 2011).

Like-named read-outs stand apart in the source and are kept apart here.

Test [1] has as its target T1, M3 muscarinic receptor subtype (M3ムスカリン性レセプターサブタイプ) (Homo sapiens, UniProt P20309).
T1 construct: expressed in transfected cells; membrane preparation
Briefly: Assay 1: radioligand binding assay ([3H]-NMS displacement).

In test [2] the target is T2, hM3 receptor (hM3レセプター) (Homo sapiens, UniProt P20309).
T2 construct: expressed in transfected cells
The test is described as follows: Assay 2C: blockade of agonist-mediated calcium release via FLIPR assay. Type of test: cell-based.

Test [3] relates to ACh-induced bronchoconstriction (ACh誘導性気管支収縮). Briefly: Assay 3: duration of bronchoprotection in guinea pig model of acetylcholine-induced bronchoconstriction. Type of test: in vivo. The note with it: inhalation, 1.5 h post-dose.

T1 sequence (P20309 whole entry): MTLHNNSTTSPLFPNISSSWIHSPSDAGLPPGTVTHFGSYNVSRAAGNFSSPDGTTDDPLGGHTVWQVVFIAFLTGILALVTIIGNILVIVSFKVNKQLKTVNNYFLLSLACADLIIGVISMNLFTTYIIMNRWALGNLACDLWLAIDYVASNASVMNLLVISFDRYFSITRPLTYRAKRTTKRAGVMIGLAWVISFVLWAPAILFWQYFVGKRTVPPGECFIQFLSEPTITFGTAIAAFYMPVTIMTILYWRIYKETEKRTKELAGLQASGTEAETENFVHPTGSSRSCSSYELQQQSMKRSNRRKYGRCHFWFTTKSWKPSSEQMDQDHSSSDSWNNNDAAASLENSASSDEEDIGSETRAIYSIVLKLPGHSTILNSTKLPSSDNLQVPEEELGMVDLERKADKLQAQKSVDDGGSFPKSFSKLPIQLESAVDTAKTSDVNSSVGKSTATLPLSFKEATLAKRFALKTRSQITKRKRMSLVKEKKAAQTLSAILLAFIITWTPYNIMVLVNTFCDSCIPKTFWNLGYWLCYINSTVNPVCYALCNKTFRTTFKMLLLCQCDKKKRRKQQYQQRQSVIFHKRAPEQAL
T2 sequence (P20309 whole entry): as above

As to `CCN(CCN1CCC(OC(=O)Nc2ccccc2-c2ccccc2)CC1)C(=O)c1ccc(CN2CCC(C(N)=O)CC2)cc1` [実施例2, ビフェニル−2−イルカルバミン酸 1−(2−{[4−(4−カルバモイルピペリジン−1−イルメチル)−ベンゾイル]エチルアミノ}エチル)ピペリジン−4−イルエステル], in test [1] (M3 subtype, [3H]-NMS displacement, CHO cell membranes, printed as less than about, read-out: Ki), the Ki was less than 5 nM.

Regarding `CN(CCN1CCC(OC(=O)Nc2ccccc2-c2ccccc2)CC1)C(=O)c1ccc(CN2CCC(C(N)=O)CC2)cc1` [実施例1, ビフェニル−2−イルカルバミン酸 1−(2−{[4−(4−カルバモイルピペリジン−1−イルメチル)ベンゾイル]メチルアミノ}エチル)ピペリジン−4−イルエステル], the Ki in test [1] and in test [2] was less than 5 nM throughout. Further, in test [3], the “PD2(50)” value was less than 200 µg/mL.

For orientation: Ki means a dissociation constant, usually derived from enzyme kinetics or from competition with a known ligand.
